Entries after “also recorded” stand apart in the source; their conditions may differ.
Tests used:
[1] = test system: MTC cells; assay: Cell population endocytic uptake assay (albumin-Alexa555, RITC-dextran) in MTC cells; format: cell-based; conditions: for effect on endocytic uptake of fluid phase marker RITC-dextran: control and peptide-stimulated conditions, inhibitors; for effect on uptake of albumin-Alexa555 via receptor-mediated (CDE) pathway: control non-stimulated conditions; for effect on uptake of albumin-Alexa555 via receptor-mediated (CDE) pathway / effect on uptake of albumin-Alexa555 via FITC-a2N1-17-TAT peptide-induced macropinocytosis (CIE) pathway: 1 μM bafilomycin A1, 100 μM DMA or 100 μM EIPA; for effect on uptake of albumin-Alexa555 via FITC-a2N1-17-TAT peptide-induced macropinocytosis (CIE) pathway: peptide-stimulated
Method: (§1) Cell Population Albumin Endocytic Uptake Assay—
(§2) Quantitative endocytic uptake of albumin-Alexa555 and RITC-dextran was performed using a cell population assay as previously described (Hurtado-Lorenzo et al. (Nat Cell Biol 8, 124-136, 2006)). HeLa cells were seeded on 48-well plates (5,000 cells/well) and grown for 5 days. MTC cells were seeded on 48-well plates (5,000 cells/well) and grown for 7 days until polarized, followed by starvation for 2 days in serum-free DMEM medium. Cells were incubated in 200 μl of Ringer buffer (pH 7.4) containing either 200 μg/ml albumin-Alexa555 or 500 μg/ml RITC-dextran in the presence of 5 μM FITC-TAT or 5 μM FITC-a2N1-17-TAT peptides. As indicated, cells were also treated with 1 μM bafilomycin A1, 1 mM amiloride, 100 μM DMA or 100 μM EIPA. At the indicated times, cells were washed with Ringer's buffer (pH 6.0) for three times and were permeabilized in 20 mM MOPS (pH 7.0), 0.1% Triton X-100. The fluorescence was measured using a DTX 880 Microplate Reader (Beckman) with 535-nm excitation and 595-nm emission filters (FIGS. 7, 8, and 12).

[2] = test system: MTC cells; assay: Cell population albumin degradation assay (DQ-Red BSA); format: cell-based; conditions: 5 μM peptides, 1 μM bafilomycin A1, 20 mM NH4Cl, 1 mM amiloride, 100 μM DMA
Method: Cell Population Albumin Degradation Assay—
Quantitative protein degradation assay was performed using DQ-Red BSA. MTC cells were seeded on 48-well plate (5,000 cells/well) and grown for 7 days until being polarized, followed by starvation for two days in serum-free DMEM medium. Cells were washed with Ringer buffer (pH 6.0) for three times and with Ringer buffer (pH 7.4) once. Cells were then incubated in 200 μl of Ringer buffer (pH 7.4) containing as indicated: 5 μM FITC-TAT, 5 μM FITC-a2N1-17-TAT peptide, 1 μM baflomycin A1, 20 mM NH4Cl, 1 mM amiloride or 100 μM DMA. DQ-Red BSA was added to a final concentration of 10 μg/ml. The fluorescence was estimated using a DTX 880 Microplate Reader (Beckman) with 590-nm excitation and 625-nm emission filters every 3 minutes. The 48-well plate was kept at 37° C. in the microplate reader (FIG. 11).

[3] = test system: MTC cells; assay: Pulse-chase live time-lapse confocal imaging and tracking of endocytic vesicles; format: cell-based
Method: Pulse-Chase Experiments and Live Time-Lapse Confocal Fluorescence Imaging—
Live cell imaging of MTC cells was performed using time-lapse confocal fluorescent imaging as previously described (Hurtado-Lorenzo et al. (Nat Cell Biol 8, 124-136, 2006)). MTC cells were seeded on FluoroDish (World Precision Instruments, Inc) (25,000-100,000 cells/dish) and grown to about 50% confluency. To label the organelles of the endocytic pathway in vivo, MTC cells were transfected using lipofectamine 2000 (Invitrogen) with 5 μg of the plasmids: i) EEA1-GFP or Rab5-EGFP (early endosomal markers); ii) Rab7-EGFP (late endosomal marker), and iii) LAMP1-mGFP (lysosomal marker). After two days, the cells were washed for three times with Ringer's buffer (pH 6.0) followed by one wash with Ringer's buffer (pH 7.4) at 37° C., and i) pulsed for 15 min with 5 μM FITC-TAT and 100 μg/ml albumin-Alexa594: ii) pulsed for 15 min with 5 μM FITC-a2N1-17-TAT and 100 μg/ml albumin-Alexa594; or iii) pre-incubated in the presence or absence of 1 μM bafilomycin A1 and pulsed with 100 μg/ml albumin-Alexa594. The MTC cells transfected with EEA1-GFP, Rab5-EGFP, Rab7-EGFP and LAMP1-GFP plasmids were pulsed for 6-15 min with 5 μM of CTMR-a2N1-17-TAT peptide. After the pulse, cells were washed either by perfusion or rinsing with Ringer's buffer (pH 7.4) and incubated in an environmental chamber (37° C., 5% CO2) coupled to a Nikon inverted microscope. Videos were acquired with a spinning-disc confocal imaging system Ultra View RS (Perkin Elmer). FIGS. 9 and 10 show frames from these movies.
Image Analysis and Tracking of Endocytic Vesicles—
Dynamics of the movement of early endosomes, late endosomes and lysosomes labeled with either: i) albumin-Alexa594; ii) FITC-a2N1-17-TAT and albumin-Alexa594; or iii) CTMR-a2N1-17-TAT and transfected EEA1-GFP markers were tracked with Particle Tracker PlugIn (Merkulova et al. (Biochim BiophysActa 1797, 1398-1409, 2010)) for ImageJ (NIH). The trajectories that appeared for over 30 frames were further analyzed. The two-dimensional displacement between consecutive frames was calculated from changes in X and Y position coordinates and speed was calculated by dividing the displacement by time. The two-dimensional displacements between all possible combinations of frames were also calculated and the longest distance was defined as “maximum distance” of the trajectory. The speeds were averaged for 11 consecutive frames and the fastest speed was defined as “maximum speed” of the trajectory.

[4] = target: T1, cytohesin-2 (Homo sapiens, UniProt Q99418); assay: Radiolabel-based GEF-activity assay ([35S]-GTPγS binding) of full-length cytohesin-2 with myr-Arf1 or myr-Arf6; format: biochemical
T1 construct: steady-state enzymatic GEF-activity analysis of full-length cytohesin-2 or Sec7 domain with Arf1 and Arf6; made in house; host or cells: E. coli BL21DE3
T1 sequence (Q99418 1-400): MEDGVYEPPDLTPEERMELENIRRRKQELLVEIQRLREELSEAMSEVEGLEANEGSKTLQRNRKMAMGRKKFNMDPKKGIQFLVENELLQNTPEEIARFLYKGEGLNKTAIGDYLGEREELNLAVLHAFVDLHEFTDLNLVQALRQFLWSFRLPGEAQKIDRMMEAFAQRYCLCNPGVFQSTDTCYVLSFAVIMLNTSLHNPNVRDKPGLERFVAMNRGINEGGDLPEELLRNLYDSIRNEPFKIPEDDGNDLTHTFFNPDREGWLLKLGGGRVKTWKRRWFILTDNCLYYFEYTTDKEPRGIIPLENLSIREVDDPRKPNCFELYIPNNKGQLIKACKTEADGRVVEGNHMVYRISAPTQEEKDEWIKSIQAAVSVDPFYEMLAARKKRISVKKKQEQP
Method: Two assays were used to determine the GDP/GTP-exchange activity of both full-length cytohesin-2 and Sec7 domain.
a) Radiolabel-Based Assay.
The lipids were dissolved in chloroform. […] Proteins were trapped on nitrocellulose filters.
To test the potential signaling between V-ATPase and cytohesin-2/Arf GTP-binding proteins, a GEF-activity assay was established for cytohesin-2 (wt) and myristoylated myr-Arf6 (wt) and myr-Arf1 (wt) GTP-binding proteins (FIG. 2A). Human Arf1 was co-expressed with yeast N-myristoyltransferase in E. coli BL21/DE3 strain. Recombinant myr-Arf1 was purified from the E. coli lysate (A1) using an AKTApurifier equipped with HiTrapQ, Superdex200 columns (A2), and Phenyl Sepharose HP column (A3). Human Arf6 was also co-expressed with yeast N-myristoyltransferase in E. coli BL21/DE3 strain. Recombinant myr-Arf6 was extracted from insoluble fraction using Triton X-100 (B1). The extract was precipitated by 35% ammonium sulfate and myr-Arf6 purified with HiTrapQ column (B2). […] Several soluble, cell permeable and fluorescently labeled a2N1-17 derived peptides were synthesized, which were used in the current GEF-activity and structural studies in vitro.

[5] = test system: HeLa cells; assay: Cell population endocytic uptake assay (albumin-Alexa555, RITC-dextran) in HeLa cells; format: cell-based; conditions: 5 μM peptide
Method: as §1, §2

[6] = test system: Human NSCLC A549 cells; assay: Cell proliferation assays (MTT, direct cell counting); format: cell-based; conditions: A549, wild-type EGFR, KRas-G12S; three days treatment
Method: Cell Proliferation Assays—
First, MTT proliferation assay was carried out using cell growth determination kit according to manufacturer instructions (Sigma). Human NSCLC A549 cells which are expressing wild-type EGFR with KRas-G12S activation mutation were studied in these experiments. […] Medium was changed daily for three days, and cells were stained with MTT and DAPI when indicated.
Second, direct cells counting assays were also performed as follows. Microscopic images of 0.317 mm^2 area each well were acquired for MTT stained cells and cells were counted using ImageJ (NIH). […] Alternatively, the cells were stained with DAPI and microscopic images of whole wells were acquired using DeltaVision system (Applied Precision). Cells were counted using Particle Tracker PlugIn for ImageJ as above (FIG. 13).

[7] = target: T2, Sec7-domain of cytohesin-2 (Homo sapiens, UniProt Q99418); conditions: Biacore; a2N(1-17) peptide and Sec7-domain; read-out: dissociation constant KD; cited from earlier work
T2 sequence (Q99418 72-201 limits assumed): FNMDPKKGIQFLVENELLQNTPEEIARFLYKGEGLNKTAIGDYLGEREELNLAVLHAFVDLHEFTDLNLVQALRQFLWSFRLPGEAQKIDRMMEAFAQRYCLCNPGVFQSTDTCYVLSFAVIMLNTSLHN

[8] = EEA1-EGFP positive early endosomes, peptide in cytosol of MTC cells, 5 μM

CN(C)c1nc(N)c(C(=O)N=C(N)N)nc1Cl.Cl [DMA, 5-N,N-dimethylamiloride hydrochloride]
effect on endocytic uptake of fluid phase marker RITC-dextran [1]: not modulated
effect on uptake of albumin-Alexa555 via receptor-mediated (CDE) pathway ([1]; hydrochloride): does not affect; also recorded: does not modulate
effect on uptake of albumin-Alexa555 via FITC-a2N1-17-TAT peptide-induced macropinocytosis (CIE) pathway ([1]; hydrochloride): could inhibit; also recorded: strongly inhibits
effect on degradation of DQ-Red-BSA in endosomal/lysosomal compartments ([2]; hydrochloride): significantly stimulated; also recorded: increased

CCN(c1nc(N)c(C(=O)N=C(N)N)nc1Cl)C(C)C [EIPA, 5-(N-ethyl-N-isopropyl)amiloride]
effect on uptake of albumin-Alexa555 via receptor-mediated (CDE) pathway [1]: does not affect
effect on uptake of albumin-Alexa555 via FITC-a2N1-17-TAT peptide-induced macropinocytosis (CIE) pathway [1]: could inhibit

Cl.N [NH4Cl]
effect on degradation of DQ-Red-BSA in endosomal/lysosomal compartments [2]: strongly inhibited

N=C(N)NC(=O)c1nc(Cl)c(N)nc1N [amiloride]
effect on degradation of DQ-Red-BSA in endosomal/lysosomal compartments [2]: significantly stimulated

CO/C1=C\C(C)=C\[C@@H](C)[C@@H](O)[C@@H](C)C/C(C)=C/C=C/[C@H](OC)[C@@H]([C@@H](C)[C@@H](O)[C@H](C)[C@@]2(O)C[C@@H](O)[C@H](C)[C@@H](C(C)C)O2)OC1=O [bafilomycin A1]
effect on moving distance of albumin-Alexa594 positive vesicles ([3]; MTC cells, 1 μM bafilomycin A1): time-dependent inhibitory effect
inhibitory effect on speed of albumin-Alexa594 positive vesicles ([3]; MTC cells, late stages of trafficking, 1 μM bafilomycin A1): 20%
effect on endocytic uptake of fluid phase marker RITC-dextran [1]: not modulated
effect on uptake of albumin-Alexa555 via receptor-mediated (CDE) pathway [1]: inhibitory action; also recorded: inhibits
effect on uptake of albumin-Alexa555 via FITC-a2N1-17-TAT peptide-induced macropinocytosis (CIE) pathway [1]: no effect; also recorded: does not modulate
effect on degradation of DQ-Red-BSA in endosomal/lysosomal compartments [2]: strongly inhibited

CTMR- MGSLFRSESMCLAQLFL - YGRKKRRQRRR [CTMR-a2N1-17-TAT]
moving distance of early endosomes [3, 8]: significant increase
moving speed of early endosomes [3, 8]: significant increase

FITC-TAT: biologically inactive control peptide, FITC-labelled TAT sequence (YGRKKRRQRRR; SEQ ID NO:33); also purchased from Anaspec
effect on endocytic uptake of albumin-Alexa555 (in words) ([1]; 5 μM peptide): no effect and not
effect on uptake of fluid-phase marker RITC-dextran ([1]; 5 μM peptide): not
potently inhibits the enzymatic activity of cytohesin-2 (in words) ([4]; with both myr-Arf6 and myr-Arf1 as substrate): not
effect on degradation of DQ-Red-BSA in endosomal/lysosomal compartments [2]: did not have any effect; also recorded: do not affect
effect on uptake of RITC-dextran [5]: not
effect on uptake of albumin-Alexa555 [5]: not

MASVFRSEEMCLSQVFL [a4N1-17]
inhibition of proliferation of human lung cancer A549 cells [6]: very potent inhibitors

MGELFRSEEMTLAQLFL [a1N1-17]
inhibition of proliferation of human lung cancer A549 cells [6]: very potent inhibitors

MGSLFRSESMCLAQLFL [a2N1-17]
inhibition of proliferation of human lung cancer A549 cells [6]: very potent inhibitors
more potent inhibitor of cytohesin-2 than SecinH3 ([4]; relative to SecinH3): up to 150 times

MGSLFRSETMCLAQLFL [a2N(1-17)]
Kd [7]: 344 nM

MGSMFRSEEVALVQLLL [a3N1-17]
inhibition of proliferation of human lung cancer A549 cells [6]: very potent inhibitors

From patent publication US20150118215A1, “Methods of Inhibiting Cell Proliferation” (The General Hospital Corporation, priority 2012, published 2015)
